# Assay results published in publication PMC9995496, “A screen for MeCP2-TBL1 interaction inhibitors using a luminescence-based assay” (Scientific Reports, 2023).
# Where a name gives a salt, the structure may show the parent alone. Peptide text beside a SMILES is read from it. * marks the point of attachment. Cbz = O=C(OCc1ccccc1)*; CH2F = FC*
# System: PRKACA-PRKAR2A interaction (SmBiT-PRKACA / LgBiT-PRKAR2A), protein kinase A
# Set-up: NanoLuc complementation counter-screen in cell extract, PRKACA with PRKAR2A, loss of luminescence, detects NanoLuc interference
# Conditions: 0.5 h, 20 µM; inhibitor
row,SMILES,Inh (PKA)
1,"Cc1sc2c(c1C)C(c1ccc(Cl)cc1)=N[C@@H](CC(=O)Nc1ccc(O)cc1)c1nnc(C)n1-2 [UM0139428:02, OTX-015]",7.269
2,"CC(C)(O)CNc1nc(Nc2ccnc(C(F)(F)F)c2)nc(-c2cccc(C(F)(F)F)n2)n1 [UM0139434:02, AG-221 (Enasidenib)]",31.79

# Same assay, conditions: counter-screen for NanoLuc interference, 0.5 h, 20 µM, inhibitor, Inh (PKA)
row,Inh (PKA) [%],SMILES
1,0.8082,"Nc1ccn([C@@H]2O[C@H](CO)[C@@H](O)C2(F)F)c(=O)n1 [UM0141399:01, Gemcitabine HCl]"
2,8.306,"CC(=O)Oc1cc2c(s1)CCN(C(C(=O)C1CC1)c1ccccc1F)C2 (stereo not drawn) [UM0141405:01, Prasugrel]"

# Same assay, conditions: counter-screen for NanoLuc interference; 0.5 h, 20 µM; inhibitor
row,SMILES,Inh (PKA) [%]
1,"Cn1nnc2c(C(N)=O)ncn2c1=O [UM0135509:03, Temozolomide]",1.163
2,"Cc1[nH]c2ccccc2c1CCNCc1ccc(/C=C/C(=O)NO)cc1 [UM0135511:02, Panobinostat (LBH589)]",3.589
3,"CN(C)CC[C@H](CSc1ccccc1)Nc1ccc(S(=O)(=O)NC(=O)c2ccc(N3CCN(Cc4ccccc4-c4ccc(Cl)cc4)CC3)cc2)cc1[N+](=O)[O-] [UM0136062:02, ABT-737]",17.72
4,"Cc1cnc(Nc2ccc(OCCN3CCCC3)cc2)nc1Nc1cccc(S(=O)(=O)NC(C)(C)C)c1 [UM0136753:02, TG101348 (SAR302503)]",24.97
5,"Cc1cc(Nc2nc(N[C@@H](C)c3ncc(F)cn3)ncc2Cl)[nH]n1 [UM0136754:02, AZD1480]",15.63
6,"N#CCNC(=O)c1ccc(-c2ccnc(Nc3ccc(N4CCOCC4)cc3)n2)cc1 [UM0136756:02, CYT387]",3.804
7,"C/C(=C\C(=O)Nc1ccccc1C(=O)O)c1ccc2ccccc2c1 [UM0138522:02, BIBR 1532]",77.2
8,"CC1(COc2ccc3c(c2)ncn3-c2ccc3cccc(N4CCC(N)CC4)c3n2)COC1 [UM0139425:02, Crenolanib (CP-868596)]",13.43
9,"CCCCc1nc2cc(/C=C/C(=O)NO)ccc2n1CCN(CC)CC [UM0139427:02, Pracinostat (SB939)]",1.482
10,"O=C1[C@H](Cc2ccc(O)cc2)N2C(=O)CCN(C(=O)NCc3ccccc3)[C@H]2CN1Cc1cccc2ccccc12 [UM0139430:02, ICG 001]",13.98
11,"N#Cc1ccnc(N2C(=O)CC[C@H]2C(=O)N(c2cncc(F)c2)[C@H](C(=O)NC2CC(F)(F)C2)c2ccccc2Cl)c1 [UM0139433:02, AG-120]",2.094
12,"CCOC(=O)c1sc(NC(=O)c2ccco2)c(SC#N)c1C [UM0139891:02, CBR-5884]",28.46
13,"NC(=O)Nc1cc(-c2cccc(F)c2)sc1C(=O)N[C@H]1CCCNC1 [UM0139975:02, AZD7762]",35.89
14,"C=CC(=O)N1C/C(=C\c2ccc([N+](=O)[O-])cc2)C(=O)/C(=C/c2ccc([N+](=O)[O-])cc2)C1 [UM0139980:02, NSC 687852 (b-AP15)]",14.65
15,"O=C(O)O [UM0141172:02, Lithium carbonate]",-3.585
16,"NCC(=O)NCC(=O)N[C@@H](Cc1ccc(O)cc1)C(=O)N[C@@H](CCCN=C(N)N)C(=O)O [UM0141375:01, Papain Inhibitor] (H-GGYR-OH)",1.556
17,"Cn1cc(-c2ccc3nnc(Sc4ccc5ncccc5c4)n3n2)cn1 [UM0141386:01, SGX-523]",2.769
18,"CCCCCCCCCC(=O)N[C@@H](Cc1c[nH]c2ccccc12)C(=O)N[C@H](CC(N)=O)C(=O)N[C@@H](CC(=O)O)C(=O)N[C@@H]1C(=O)NCC(=O)N[C@@H](CCCN)C(=O)N[C@@H](CC(=O)O)C(=O)N[C@H](C)C(=O)N[C@@H](CC(=O)O)C(=O)NCC(=O)N[C@H](CO)C(=O)N[C@@H]([C@H](C)CC(=O)O)C(=O)N[C@@H](CC(=O)c2ccccc2N)C(=O)O[C@@H]1C [UM0141387:01, Daptomycin]",0.4906
19,"C=C1C[C@@H]2[C@H](CC[C@]3(C)C(=O)CC[C@@H]23)[C@@]2(C)C=CC(=O)C=C12 [UM0141388:01, Exemestane]",1.515
20,"CCc1cc(Nc2nccc(-c3c(-c4ccc(OC)c(C(=O)Nc5c(F)cccc5F)c4)nc4ccccn34)n2)c(OC)cc1N1CCC(N2CCN(S(C)(=O)=O)CC2)CC1 [UM0141389:01, GSK1904529A]",3.167
21,"N#Cc1ccc(C(c2ccc(C#N)cc2)n2cncn2)cc1 [UM0141390:01, Letrozole]",1.331

# Now from value to molecule:
row,Inh (PKA) [%],SMILES
1,13.81,"CCOc1cc(N)c(Cl)cc1C(=O)NCC1CN(Cc2ccc(F)cc2)CCO1 (stereo not drawn) [UM0141391:01, Mosapride Citrate]"
2,2.002,"C=CC[N+]1([C@H]2C[C@H]3[C@@H]4CC[C@H]5C[C@H](O)[C@@H](N6CCOCC6)C[C@]5(C)[C@H]4CC[C@]3(C)[C@H]2OC(C)=O)CCCC1 [UM0141392:01, Rocuronium Bromide]"
3,6.926,"COc1cc(N2CCC(N3CCN(C)CC3)CC2)ccc1Nc1ncc(Cl)c(Nc2ccccc2P(C)(C)=O)n1 [UM0141393:01, AP26113]"
4,2.946,"C[C@@H](O)[C@H]1C(=O)N2C(C(=O)[O-])=C(SC3Cn4cnc[n+]4C3)[C@H](C)[C@H]12 (stereo partly drawn) [UM0141395:01, Biapenem]"
5,30.48,"C=CC(=O)Nc1cccc(Oc2nc(Nc3ccc(N4CCN(C)CC4)cc3OC)ncc2Cl)c1 [UM0141397:01, WZ4002]"
6,37.33,"C=CC(=O)Nc1cccc(Sc2nc(Nc3ccc(N4CCN(C)CC4)cc3)ncc2Cl)c1 [UM0141398:01, WZ8040]"
7,8.683,"COc1ccc(S(=O)(=O)Nc2cccnc2Nc2ccc(O)cc2)cc1 [UM0141402:01, ABT-751 (E7010)]"
8,2.168,"C[C@@H](CN1CC(=O)NC(=O)C1)N1CC(=O)NC(=O)C1 [UM0141403:01, Dexrazoxane HCl (ICRF-187, ADR-529)]"
9,24,"O=C(N/N=C/c1ccc(O)c(O)c1)c1cc2ccccc2cc1O [UM0141404:01, Dynasore]"
10,40.66,"Oc1ccc(-c2nc(-c3ccc(F)cc3)c(-c3ccncc3)[nH]2)cc1 [UM0141406:01, SB202190 (FHPI)]"
11,3.779,"CCNC(=O)Nc1ccc(-c2nc3c(c(N4CCOC[C@@H]4C)n2)CCN(C2COC2)C3)cc1 [UM0141407:01, GDC-0349]"
12,7.996,"C[C@]12C=CC(=O)N[C@@H]1CC[C@@H]1[C@@H]2CC[C@]2(C)[C@@H](C(=O)Nc3cc(C(F)(F)F)ccc3C(F)(F)F)CC[C@@H]12 [UM0141408:01, Dutasteride]"
13,12.87,"C[C@@H](O[C@H]1OCCN(Cc2n[nH]c(=O)[nH]2)[C@H]1c1ccc(F)cc1)c1cc(C(F)(F)F)cc(C(F)(F)F)c1 [UM0141409:01, Aprepitant]"
14,28.45,"O=C(O)CCc1ccc(NCc2cccc(Oc3ccccc3)c2)cc1 [UM0141410:01, GW9508]"
15,3.84,"CC[C@@H]([C@H](C)O)n1ncn(-c2ccc(N3CCN(c4ccc(OC[C@@H]5CO[C@@](Cn6cncn6)(c6ccc(F)cc6F)C5)cc4)CC3)cc2)c1=O [UM0141411:01, Posaconazole]"
16,8.901,"C[C@H](Nc1ncnc2nc[nH]c12)c1cc2cccc(Cl)c2c(=O)n1-c1ccccc1 [UM0141412:01, IPI-145 (INK1197)]"

row,Inh (PKA) [%],SMILES
1,0.7211,"CC(C)OC(=O)OCOP(=O)(CO[C@H](C)Cn1cnc2c(N)ncnc21)OCOC(=O)OC(C)C [UM0141413:01, Tenofovir Disoproxil Fumarate]"
2,8.649,"CCN1CCN(Cc2ccc(Nc3ncc(F)c(-c4cc(F)c5nc(C)n(C(C)C)c5c4)n3)nc2)CC1 [UM0141414:01, LY2835219]"
3,20,"CCOc1cc2ncc(C#N)c(Nc3ccc(F)c(Cl)c3)c2cc1NC(=O)/C=C/CN(C)C [UM0141415:01, Pelitinib (EKB-569)]"
4,5.945,"C=CC(=O)Nc1cc2c(Nc3ccc(F)c(Cl)c3)ncnc2cc1OCCCN1CCOCC1 [UM0141416:01, Canertinib (CI-1033)]"
5,15.47,"Oc1nc(-c2ccc(C(F)(F)F)cc2)nc2c1CSCC2 [UM0141417:01, XAV-939]"
6,13.87,"COc1cc2c(Oc3ccc4[nH]c(C)cc4c3F)ncnc2cc1OCCCN1CCCC1 [UM0141418:01, Cediranib (AZD217)]"
7,1.417,"COC(=O)C[C@H](NC(=O)[C@H](C)NC(=O)[C@@H](NC(=O)OCc1ccccc1)C(C)C)C(=O)CF [UM0141421:01, Z-VAD-FMK] (Cbz-Val-Ala-Asp(OMe)-CH2F)"
8,1.796,"COC(=O)CC(NC(=O)OC(C)(C)C)C(=O)CF [UM0141423:01, Boc-D-FMK]"
9,7.16,"Nc1nc(OCc2cc(Br)cs2)c2[nH]cnc2n1 [UM0141425:01, Lomeguatrib]"
10,1.344,"O=C(O)C(Cc1c[nH]c2ccccc12)N1C(=O)c2ccccc2C1=O (stereo not drawn) [UM0141426:01, RG 108]"
11,1.254,"COC(=O)CC[C@H](NC(=O)[C@H](CC(=O)OC)NC(=O)OCc1ccccc1)C(=O)N[C@H](C(=O)N[C@@H](CC(=O)OC)C(=O)CF)C(C)C [UM0141427:01, Z-DEVD-FMK]"
12,1.642,"COC(=O)C[C@H](NC(=O)[C@H](CCSC)NC(=O)[C@H](CCC(N)=O)NC(=O)[C@H](CC(=O)OC)NC(=O)OCc1ccccc1)C(=O)CF [UM0141428:01, Z-DQMD-FMK] (Cbz-D(OMe)QMD(OMe)-CH2F)"
13,-0.4508,"COC(=O)C[C@H](NC(=O)[C@H](C)NC(=O)[C@@H](NC(=O)[C@H](CC(=O)OC)NC(=O)[C@@H](NC(=O)OCc1ccccc1)C(C)C)C(C)C)C(=O)CF [UM0141429:01, Z-VDVAD-FMK] (Cbz-VD(OMe)VAD(OMe)-CH2F)"
14,-0.4163,"CC[C@H](C)[C@H](NC(=O)[C@H](CCC(=O)OC)NC(=O)[C@@H](NC(=O)OCc1ccccc1)C(C)C)C(=O)N[C@@H](CC(=O)OC)C(=O)CF [UM0141430:01, Z-VEID-FMK] (Cbz-VE(OMe)ID(OMe)-CH2F)"
15,2.243,"COC[C@@H]1CCCN1S(=O)(=O)c1ccc2c(c1)C(=O)C(=O)N2 [UM0141431:01, Caspase-3/7 Inhibitor I]"
16,-0.2737,"CCCNC(=O)[C@H]1O[C@@H]1C(=O)N[C@H](C(=O)N1CCC[C@H]1C(=O)O)[C@@H](C)CC [UM0141432:01, CA 074]"
